Measurements taken from patent US10344049B2, “Substituted steroids for the treatment of cancer” (AQUAVAN TECHNOLOGY CO., LTD., priority 2017, dated 2019).
Like-named read-outs stand apart in the source and are kept apart here.

Key:
Assay type in all cases: cell-based
[1] = system: human leukemia cells U937; test: Cell viability test (Resazurin), U937 cells
Description: (§1) Cell viability was determined with Resazurin (at a final concentration of 25 μg/mL).

[2] = system: African green monkey kidney cells Vero; test: Cell viability test (Resazurin), Vero cells
Description: as §1

[3] = system: human Glioblastoma cells U87-MG; test: Cell viability test (Resazurin), U87-MG cells; set-up: evaluation of ability to inhibit cell growth activity (IC50): scale not given here
Description: as §1

[4] = system: human breast cancer cells MDA-MB-231; test: Cell viability test (Resazurin), MDA-MB-231 cells; set-up: evaluation of ability to inhibit cell growth activity (IC50): scale not given here
Description: as §1

[5] = system: human colorectal cancer cells SW-480; test: Cell viability test (Resazurin), SW480 cells
Description: as §1

[6] = system: human lung cancer cells A549; test: Cell viability test (Resazurin), A549 cells; set-up: evaluation of ability to inhibit cell growth activity (IC50): scale not given here
Description: as §1

[7] = system: human liver cancer cells Mahlavu; test: Cell viability test (Resazurin), Mahlavu cells
Description: as §1

[8] = system: human breast cancer cells MDA-MB-468; test: Cell viability test (Resazurin), MDA-MB-468 cells
Description: as §1

[9] = Homo sapiens, U-937, 48 h, U937 cells, 48 hours, 0.1% FCS, Resazurin, read-out: inhibitory concentrations of cell growth activity IC50
[10] = Homo sapiens, U-937, U937 cells, grade of the IC50 of Table 2, read-out: evaluation of ability to inhibit cell growth activity (IC50)
[11] = Chlorocebus sabaeus, Vero, 48 h, 0.1% FCS, Resazurin, read-out: inhibitory concentrations of cell growth activity IC50
[12] = Chlorocebus sabaeus, Vero, grade of the IC50 of Table 2, read-out: evaluation of ability to inhibit cell growth activity (IC50)
[13] = Homo sapiens, U-87 MG, 48 h, 0.1% FCS, Resazurin, read-out: inhibitory concentrations of cell growth activity IC50
[14] = Homo sapiens, U-87 MG, grade of the IC50 of Table 2, read-out: evaluation of ability to inhibit cell growth activity (IC50)
[15] = Homo sapiens, MDA-MB-231, 48 h, MDA-MB-231 cells, 48 hours, 0.1% FCS, Resazurin, read-out: inhibitory concentrations of cell growth activity IC50
[16] = Homo sapiens, MDA-MB-231, MDA-MB-231 cells, grade of the IC50 of Table 2, read-out: evaluation of ability to inhibit cell growth activity (IC50)
[17] = Homo sapiens, SW480, 48 h, SW480 cells, 48 hours, 0.1% FCS, Resazurin, read-out: inhibitory concentrations of cell growth activity IC50
[18] = Homo sapiens, SW480, SW480 cells, grade of the IC50 of Table 2, read-out: evaluation of ability to inhibit cell growth activity (IC50)
[19] = Homo sapiens, A549, 48 h, A549 cells, 48 hours, 0.1% FCS, Resazurin, read-out: inhibitory concentrations of cell growth activity IC50
[20] = Homo sapiens, A549, A549 cells, grade of the IC50 of Table 2, read-out: evaluation of ability to inhibit cell growth activity (IC50)
[21] = Homo sapiens, Mahlavu, 48 h, 0.1% FCS, Resazurin, read-out: inhibitory concentrations of cell growth activity IC50
[22] = Homo sapiens, Mahlavu, grade of the IC50 of Table 2, read-out: evaluation of ability to inhibit cell growth activity (IC50)
[23] = Homo sapiens, MDA-MB-468, 48 h, MDA-MB-468 cells, 48 hours, 0.1% FCS, Resazurin, read-out: inhibitory concentrations of cell growth activity IC50
[24] = Homo sapiens, MDA-MB-468, MDA-MB-468 cells, grade of the IC50 of Table 2, read-out: evaluation of ability to inhibit cell growth activity (IC50)
[25] = U937 cells, 48 hours, 0.1% FCS, Resazurin, read-out: inhibitory concentrations of cell growth activity IC50
[26] = U937 cells, grade of the IC50 of Table 2, read-out: evaluation of ability to inhibit cell growth activity (IC50)
[27] = 48 hours, 0.1% FCS, Resazurin, read-out: inhibitory concentrations of cell growth activity IC50
[28] = grade of the IC50 of Table 2, read-out: evaluation of ability to inhibit cell growth activity (IC50)
[29] = MDA-MB-231 cells, 48 hours, 0.1% FCS, Resazurin, read-out: inhibitory concentrations of cell growth activity IC50
[30] = MDA-MB-231 cells, grade of the IC50 of Table 2, read-out: evaluation of ability to inhibit cell growth activity (IC50)
[31] = SW480 cells, 48 hours, 0.1% FCS, Resazurin, read-out: inhibitory concentrations of cell growth activity IC50
[32] = SW480 cells, grade of the IC50 of Table 2, read-out: evaluation of ability to inhibit cell growth activity (IC50)
[33] = A549 cells, 48 hours, 0.1% FCS, Resazurin, read-out: inhibitory concentrations of cell growth activity IC50
[34] = A549 cells, grade of the IC50 of Table 2, read-out: evaluation of ability to inhibit cell growth activity (IC50)
[35] = MDA-MB-468 cells, 48 hours, 0.1% FCS, Resazurin, read-out: inhibitory concentrations of cell growth activity IC50
[36] = MDA-MB-468 cells, grade of the IC50 of Table 2, read-out: evaluation of ability to inhibit cell growth activity (IC50)

IC50 [1, 25] [µM]	IC50 [1, 26] [µM]	IC50 [3, 27] [µM]	IC50 [3, 28] [µM]	IC50 [4, 29] [µM]	IC50 [4, 30] [µM]	IC50 [5, 31] [µM]	IC50 [5, 32] [µM]	IC50 [6, 33] [µM]	IC50 [6, 34] [µM]	IC50 [7, 27] [µM]	IC50 [7, 28] [µM]	IC50 [8, 35] [µM]	IC50 [8, 36] [µM]	Structure (SMILES)	IC50 [1, 9] [µM]	IC50 [1, 10] [µM]	IC50 [2, 11] [µM]	IC50 [2, 12] [µM]	IC50 [2, 27] [µM]	IC50 [2, 28] [µM]	other results
–	–	–	–	–	–	–	–	–	–	–	–	–	–	CC(=O)O[C@@H](C=C(C)C)C[C@@H](C)[C@H]1CC[C@@]2(C)[C@@H]3[C@@H](O)C=C4[C@@H](CC[C@H](O)C4(C)C)[C@]3(C=O)CC[C@]12C [Compound 10]	5.92	< 8	19.2	16 to 64	–	–	IC50 [3, 13]: 10.7 µM; IC50 [3, 14]: 8 to 16 µM; evaluation of ability to inhibit cell growth activity (IC50) ([3]; grade of the IC50 of Table 2): ◯; IC50 [4, 15]: 10.7 µM; IC50 [4, 16]: 8 to 16 µM; evaluation of ability to inhibit cell growth activity (IC50) ([4]; MDA-MB-231 cells, grade of the IC50 of Table 2): ◯; IC50 [5, 17]: 17.9 µM; IC50 [5, 18]: 16 to 64 µM; evaluation of ability to inhibit cell growth activity (IC50) ([6]; A549 cells, grade of the IC50 of Table 2): ◯; IC50 [6, 19]: 9.81 µM; IC50 [6, 20]: 8 to 16 µM; IC50 [7, 21]: 19.4 µM; IC50 [7, 22]: 16 to 64 µM; IC50 [8, 23]: 20.3 µM; IC50 [8, 24]: 16 to 64 µM
–	–	–	–	–	–	–	–	–	–	–	–	–	–	CC(C)=CC(=O)C[C@@H](C)[C@H]1CC[C@@]2(C)[C@@H]3[C@@H](O)C=C4[C@@H](CC[C@H](O)C4(C)C)[C@]3(C=O)CC[C@]12C [Compound 11]	84.2	64 to 256	> 256	> 256	–	–	IC50 [3, 13]: > 256 µM; IC50 [3, 14]: > 256 µM; IC50 [4, 15]: > 256 µM; IC50 [4, 16]: > 256 µM; IC50 [5, 17]: > 256 µM; IC50 [5, 18]: > 256 µM; IC50 [6, 19]: > 256 µM; IC50 [6, 20]: > 256 µM; IC50 [7, 21]: > 256 µM; IC50 [7, 22]: > 256 µM; IC50 [8, 23]: > 256 µM; IC50 [8, 24]: > 256 µM
58.6	16 to 64	49	16 to 64	41.7	16 to 64	98.6	64 to 256	100	64 to 256	70.3	64 to 256	56.5	16 to 64	CC(C)=C[C@@H](C[C@@H](C)[C@H]1CC[C@@]2(C)[C@@H]3[C@@H](O)C=C4[C@@H](CC[C@H](O)C4(C)C)[C@]3(C=O)CC[C@]12C)O[C@@H]1O[C@H](CO)[C@@H](O)[C@H](O)[C@H]1O [Compound 12]	–	–	–	–	124	64 to 256	–
32.5	16 to 64	103	64 to 256	59.4	16 to 64	67.2	64 to 256	198	64 to 256	> 256	> 256	58.3	16 to 64	CC(C)=C[C@H](O)C[C@@H](C)[C@H]1CC[C@@]2(C)[C@@H]3[C@@H](O[C@@H]4O[C@H](CO)[C@@H](O)[C@H](O)[C@H]4O)C=C4[C@@H](CC[C@H](O)C4(C)C)[C@]3(C=O)CC[C@]12C [Compound 13]	–	–	–	–	> 256	> 256	–
19.8	16 to 64	58.5	16 to 64	32.8	16 to 64	64.2	64 to 256	171	64 to 256	> 256	> 256	39.3	16 to 64	C[C@H](C/C=C/C(C)(C)O)[C@H]1CC[C@@]2(C)[C@@H]3[C@@H](O[C@@H]4O[C@H](CO)[C@@H](O)[C@H](O)[C@H]4O)C=C4[C@@H](CC[C@H](O)C4(C)C)[C@]3(C=O)CC[C@]12C [Compound 14]	–	–	–	–	> 256	> 256	–
